According to paper PMC8610083 (Clinical cancer research : an official journal of the …, 2021):

Experiments:
γ-secretase [1] = target: T1, γ-secretase (Homo sapiens, UniProt P49768); experiment: Membrane-based radioligand binding assay with [^131I]-PN67; details: for Blocking of PN67 binding to γ-secretase: Hela cell membrane, [^131I]-PN67 radioligand
γ-secretase [2] = target: T1, γ-secretase; experiment: In vitro γ-secretase activity assay; type: biochemical
[3] = Ex vivo biodistribution in 4T1-Luc allograft mouse model
γ-secretase [4] = target: γ-secretase (Mus musculus, UniProt P49769); experiment: PET imaging of 4T1-Luc tumors in BALB/c mice, baseline and blocking; type: in vivo; details: co-injection 0.2 mg/kg to 30 mg/kg, 2h post injection
[5] = biodistribution, post injection

IC50 (γ-secretase [2]) | Ki (γ-secretase [1]) | Structure (SMILES) | Blocking of PN67 binding to γ-secretase (γ-secretase [1]) | further results
 |  | O=C(O)CC[C@H]1CC[C@@](c2cc(F)ccc2F)(S(=O)(=O)c2ccc(Cl)cc2)CC1 [MK-0752] | effectively block PN67 binding to γ-secretase | 
 |  | CCC[C@H](N[C@H]1CCc2cc(F)cc(F)c2C1)C(=O)Nc1cn(C(C)(C)CNCC(C)(C)C)cn1 [PF-03084014] | effectively block PN67 binding to γ-secretase | 
 |  | CC(C)(C(=O)NCC(F)(F)C(F)(F)F)C(=O)N[C@@H]1C(=O)Nc2ccccc2-c2ccccc21 [RO-4929097] | effectively block PN67 binding to γ-secretase | 
16.2 nM | 13.6 nM | CC(C)[C@H](O)C(=O)N[C@@H](C)C(=O)N[C@@H]1C(=O)N(C)CCc2ccccc21 [compound 1, Semagacestat] |  | Blocking of 4T1 tumor uptake of [^124I]-PN67 (biodistribution) ([3]; co-administered 30mg/kg with the tracer, 2h time point): significant reduction of tracer uptake; Blocking of [^124I]-PN67 PET signal in 4T1-Luc tumor (γ-secretase [4]): blocked in a dose-dependent manner
3.5 nM | 4.3 nM | CC(C)[C@H](O)C(=O)N[C@@H](C)C(=O)N[C@@H]1C(=O)N(C)CCc2ccc(I)cc21 [compound 2, (S)-2-hydroxy-N-((S)-1-(((S)-8-iodo-3-methyl-2-oxo-2,3,4,5-tetrahydro-1H-benzo[d]azepin-1-yl)amino)-1-oxopropan-2-yl)-3-methylbutanamide] |  | Half-life in mouse models ([3]; based on ex vivo biodistribution and PET imaging): about 2 hours; Time of maximal radioactivity in large intestine [3, 5]: 2 h; Time of maximal radioactivity in liver [3, 5]: 0.5 h; Time of maximal radioactivity in small intestine [3, 5]: 1 h
